Test results reported in patent US11649231B2, “Compound as mTOR inhibitor and use thereof” (MEDICINAL BIOCONVERGENCE RESEARCH CENTER, priority 2018, dated 2023).

tested on: RagD; experiment: RagD GTP hydrolysis inhibitory activity (GTP-agarose bead pulldown assay) in SW620 cells; format: cell-based; conditions: 10 μM for 1 hour, leucine restimulation 15 min
Procedure: GTP-agarose bead pulldown assay was performed to analyze RagD bound to GTP.
After washing the cells with cold PBS, cells were obtained in GTP-binding buffer (20 mM Tris-HCl, pH 7.5, 5 mM MgCl2, 2 mM PMSF, 20 μg/ml leupeptin, 10 μg/ml aprotinin, 150 mM NaCl, 1% Triton X-100, 1× phosphatase inhibitor cocktail). The cells were sonicated for 15 seconds to lyse, and the cell lysate was centrifuged at 4° C. for 10 minutes and at 13000×g to obtain a supernatant. The obtained protein solution (contained in 500 μl of GTP-binding buffer) was treated with 100 μl of GPT-agarose bead (Sigma Aldrich, Cat no. G9768) and left at 4° C. for 30 minutes. Thereafter, the beads were washed with GTP-binding buffer, and the supernatant was recovered. The washed beads in the recovered supernatant were once again treated for 30 minutes. The beads were washed again, and the recovered supernatant was left overnight at 4° C. After washing 5 times with GTP-binding buffer to separate contaminants that may have been included, the GTP-binding protein was analyzed by performing immunoblot analysis using anti-RagD or ARF1 antibody. ARF1 was used as a negative control.

SMILES	GTP hydrolysis of RagD
O=C1NC(=S)S/C1=C\c1cnn(-c2ccccc2)c1 [Example 1-1, (5Z)-5-[(1-phenylpyrazol-4-yl)methylene]-2-thioxo-thiazolidin-4-one]	inhibiting the GTP hydrolysis of RagD

target: LRS and RagD (Homo sapiens (Human), UniProt Q9P2J5); experiment: Inhibition of the interaction of LRS and RagD (immunoprecipitation) in SW620 cells; format: cell-based; conditions: 10 uM for 1 hour, leucine restimulation, anti-LRS or anti-RagD precipitate
Procedure: Cells were lysed using a lysis buffer containing a protease inhibitor, and a primary antibody was added to the cell lysate for immunoprecipitation, followed by stirring at 4° C. for 2 hours and allowed to stand. A 50% protein agarose G-Sepharose slurry was added and left for an additional 4 hours. After washing three times with cold lysis buffer, the precipitate was dissolved in SDS sample buffer, separated by SDS-PAGE, and immunoblotted using anti-LRS or anti-RagD antibody.

Chain of LRS and RagD (Q9P2J5 whole entry): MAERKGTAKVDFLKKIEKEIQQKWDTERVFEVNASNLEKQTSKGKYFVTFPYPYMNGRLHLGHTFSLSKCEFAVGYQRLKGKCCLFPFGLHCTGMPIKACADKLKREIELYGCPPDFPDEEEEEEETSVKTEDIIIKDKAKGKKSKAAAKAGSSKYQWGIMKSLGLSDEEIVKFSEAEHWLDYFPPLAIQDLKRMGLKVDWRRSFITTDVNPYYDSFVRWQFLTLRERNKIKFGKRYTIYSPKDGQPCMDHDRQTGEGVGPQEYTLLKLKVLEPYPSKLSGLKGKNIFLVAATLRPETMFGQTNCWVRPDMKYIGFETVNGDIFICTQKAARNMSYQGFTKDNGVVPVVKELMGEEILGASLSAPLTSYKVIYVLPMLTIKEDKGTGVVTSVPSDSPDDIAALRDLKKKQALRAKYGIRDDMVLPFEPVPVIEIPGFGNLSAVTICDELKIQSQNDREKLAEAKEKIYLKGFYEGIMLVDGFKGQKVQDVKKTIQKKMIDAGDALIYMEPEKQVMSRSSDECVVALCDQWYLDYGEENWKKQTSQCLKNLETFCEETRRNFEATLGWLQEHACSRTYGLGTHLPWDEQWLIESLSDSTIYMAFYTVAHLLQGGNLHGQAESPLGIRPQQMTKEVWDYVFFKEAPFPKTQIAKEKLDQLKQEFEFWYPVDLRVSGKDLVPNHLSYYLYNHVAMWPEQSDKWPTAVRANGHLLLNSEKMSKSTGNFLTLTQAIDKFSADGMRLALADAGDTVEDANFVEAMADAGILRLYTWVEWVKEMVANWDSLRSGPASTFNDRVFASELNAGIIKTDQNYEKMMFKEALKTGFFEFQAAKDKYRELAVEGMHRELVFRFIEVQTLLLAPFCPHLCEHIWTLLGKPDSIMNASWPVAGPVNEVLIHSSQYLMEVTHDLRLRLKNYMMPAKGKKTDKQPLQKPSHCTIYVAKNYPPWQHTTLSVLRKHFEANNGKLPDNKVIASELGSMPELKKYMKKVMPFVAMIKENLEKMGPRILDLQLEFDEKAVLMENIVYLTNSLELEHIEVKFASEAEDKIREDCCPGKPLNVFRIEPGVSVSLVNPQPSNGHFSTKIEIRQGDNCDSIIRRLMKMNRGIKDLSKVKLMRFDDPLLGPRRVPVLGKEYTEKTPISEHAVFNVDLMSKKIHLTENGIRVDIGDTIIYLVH

SMILES	interaction between LRS and RagD
O=C1NC(=S)S/C1=C\c1cnn(-c2ccccc2)c1 [Example 1-1, (5Z)-5-[(1-phenylpyrazol-4-yl)methylene]-2-thioxo-thiazolidin-4-one]	directly inhibited

tested on: mTORC1; experiment: mTORC1 activity inhibitory effect at 20 μM, phospho-p70 S6 Kinase Western blot in SW620 cells; conditions: leucine-free 1 h 30 min, then leucine 15 min, vs DMSO control
Procedure: In order to evaluate the inhibitory effect of the compounds according to the present invention on the activity of mTORC1, an experiment was performed in the following manner.

SMILES	mTORC1 inhibitory effect (%)
C=CCN1C(=O)/C(=C/c2cnn(-c3ccc(C)cc3)c2)SC1=S [Example 1-23, (5Z)-3-allyl-5-[[1-(p-tolyl)pyrazol-4-yl]methylene]-2-thioxo-thiazolidin-4-one]	15.74 ± 10.22%
CCN1C(=O)/C(=C/c2cnn(-c3ccc(C(C)C)cc3)c2)SC1=S [Example 1-25, (5Z)-3-ethyl-5-[[1-(4-isopropylphenyl)pyrazol-4-yl]methylene]-2-thioxo-thiazolidin-4-one]	36.86 ± 3.47%
CCCCc1ccc(-n2cc(/C=C3\SC(=S)NC3=O)cn2)cc1 [Example 1-26, (5Z)-5-[[1-(4-butylphenyl)pyrazol-4-yl]methylene]-2-thioxo-thiazolidin-4-one]	59.73 ± 3.55%
CCCCc1ccc(-n2cc(/C=C3\SC(=S)N(CC)C3=O)cn2)cc1 [Example 1-27, (5Z)-5-[[1-(4-butylphenyl)pyrazol-4-yl]methylene]-3-ethyl-2-thioxo-thiazolidin-4-one]	51.70 ± 7.12%
Cc1ccc(-n2cc(/C=C3\SC(=S)NC3=O)cn2)cc1C [Example 1-28, (5Z)-5-[[1-(3,4-dimethylphenyl)pyrazol-4-yl]methylene]-2-thioxo-thiazolidin-4-one]	47.13 ± 3.15%
CCN1C(=O)/C(=C/c2cnn(-c3ccc(C)c(C)c3)c2)SC1=S [Example 1-29, (5Z)-5-[[1-(3,4-dimethylphenyl)pyrazol-4-yl]methylene]-3-ethyl-2-thioxo-thiazolidin-4-one]	4.02 ± 6.64%
O=C1NC(=S)S/C1=C\c1cnn(-c2ccc3ccccc3c2)c1 [Example 1-31, (5Z)-5-[[1-(2-naphthyl)pyrazol-4-yl]methylene]-2-thioxo-thiazolidin-4-one]	40.20 ± 1.02%
CCN1C(=O)/C(=C/c2cnn(-c3ccc4ccccc4c3)c2)SC1=S [Example 1-32, (5Z)-3-ethyl-5-[[1-(2-naphthyl)pyrazol-4-yl]methylene]-2-thioxo-thiazolidin-4-one]	75.04 ± 5.32%
O=C1/C(=C/c2cnn(-c3ccccn3)c2)SC(=S)N1CCO [Example 1-34, (5Z)-3-(2-hydroxyethyl)-5-[[1-(2-pyridyl)pyrazol-4-yl]methylene]-2-thioxo-thiazolidin-4-one]	82.94 ± 1.10%
O=C1/C(=C/c2cnn(-c3cccnc3)c2)SC(=S)N1CCO [Example 1-36, (5Z)-3-(2-hydroxyethyl)-5-[[1-(3-pyridyl)pyrazol-4-yl]methylene]-2-thioxo-thiazolidin-4-one]	80.88 ± 1.10%
Cc1nn(-c2ccccc2)c(C)c1/C=C1\SC(=S)NC1=O [Example 1-38, (5Z)-5-[(3,5-dimethyl-1-phenyl-pyrazol-4-yl)methylene]-2-thioxo-thiazolidin-4-one]	75.78 ± 2.60%
O=C1NC(=O)/C(=C/c2cnn(-c3ccccc3F)c2)S1 [Example 1-40, (5Z)-5-[[1-(2-fluorophenyl)pyrazol-4-yl]methylene]thiazolidine-2,4-dione]	41.03 ± 0.21%
O=C1NC(=O)/C(=C/c2cnn(-c3cccc(F)c3)c2)S1 [Example 1-41, (5Z)-5-[[1-(3-fluorophenyl)pyrazol-4-yl]methylene]thiazolidine-2,4-dione]	49.37 ± 7.34%
O=C1NC(=O)/C(=C/c2cnn(-c3ccc(F)cc3)c2)S1 [Example 1-42, (5Z)-5-[[1-(4-fluorophenyl)pyrazol-4-yl]methylene]thiazolidine-2,4-dione]	73.81 ± 2.77%
O=C1NC(=O)/C(=C/c2cnn(-c3ccccc3Cl)c2)S1 [Example 1-43, (5Z)-5-[[1-(2-chlorophenyl)pyrazol-4-yl]methylene]thiazolidine-2,4-dione]	52.34 ± 3.97%
O=C1NC(=O)/C(=C/c2cnn(-c3cccc(Cl)c3)c2)S1 [Example 1-44, (5Z)-5-[[1-(3-chlorophenyl)pyrazol-4-yl]methylene]thiazolidine-2,4-dione]	50.76 ± 5.28%
O=C1NC(=O)/C(=C/c2cnn(-c3ccc(Cl)cc3)c2)S1 [Example 1-45, (5Z)-5-[[1-(4-chlorophenyl)pyrazol-4-yl]methylene]thiazolidine-2,4-dione]	64.18 ± 3.13%
Cc1ccc(-n2cc(/C=C3\SC(=O)NC3=O)cn2)cc1 [Example 1-46, (5Z)-5-[[1-(p-tolyl)pyrazol-4-yl]methylene]thiazolidine-2,4-dione]	74.39 ± 0.62%
CC(C)c1ccc(-n2cc(/C=C3\SC(=O)NC3=O)cn2)cc1 [Example 1-47, (5Z)-5-[[1-(4-isopropylphenyl)pyrazol-4-yl]methylene]thiazolidine-2,4-dione]	74.36 ± 1.23%
CCCCc1ccc(-n2cc(/C=C3\SC(=O)NC3=O)cn2)cc1 [Example 1-48, (5Z)-5-[[1-(4-butylphenyl)pyrazol-4-yl]methylene]thiazolidine-2,4-dione]	69.53 ± 2.04%
Cc1ccc(-n2cc(/C=C3\SC(=O)NC3=O)cn2)cc1C [Example 1-49, (5Z)-5-[[1-(3,4-dimethylphenyl)pyrazol-4-yl]methylene]thiazolidine-2,4-dione]	68.36 ± 2.99%
COc1ccccc1-n1cc(/C=C2\SC(=O)NC2=O)cn1 [Example 1-50, (5Z)-5-[[1-(2-methoxyphenyl)pyrazol-4-yl]methylene]thiazolidine-2,4-dione]	38.93 ± 16.04%
O=C1NC(=O)/C(=C/c2cnn(-c3ccc4ccccc4c3)c2)S1 [Example 1-51, (5Z)-5-[[1-(2-naphthyl)pyrazol-4-yl]methylene]thiazolidine-2,4-dione]	53.08 ± 1.81%
Cc1nn(-c2ccccc2)cc1/C=C1\SC(=O)NC1=O [Example 1-53, (5Z)-5-[(3-methyl-1-phenyl-pyrazol-4-yl)methylene]thiazolidine-2,4-dione]	71.70 ± 1.70%
Cc1nn(-c2ccccc2)c(C)c1/C=C1\SC(=O)NC1=O [Example 1-54, (5Z)-5-[(3,5-dimethyl-1-phenyl-pyrazol-4-yl]methylene]thiazolidine-2,4-dione]	71.17 ± 4.46%
O=C1NC(=S)S/C1=C\c1ccn(-c2ccc(Cl)cc2)n1 [Example 1-55, (5Z)-5-[[1-(4-chlorophenyl)pyrazol-3-yl]methylene]-2-thioxo-thiazolidin-4-one]	74.6 ± 6.5%
O=C1NC(=O)/C(=C/c2ccn(-c3ccccc3)n2)S1 [Example 1-58, (5Z)-5-[[1-phenylpyrazol-3-yl]methylene]thiazolidine-2,4-dione]	59.51 ± 4.35%
O=C1NC(=O)/C(=C/c2ccn(-c3cccnc3)n2)S1 [Example 1-60, (5Z)-5-[[1-(3-pyridyl)pyrazol-3-yl]methylene]thiazolidine-2,4-dione]	81.52 ± 3.79%
